According to patent US20220389007A1, “INHIBITORS OF HUMAN IMMUNODEFICIENCY VIRUS REPLICATION” (VIIV HEALTHCARE UK (No. 5) LIMITED, priority 2019, published 2022):

Experiments:
recombinant NL4-3 virus = assay: HIV cell culture assay (antiviral activity, luciferase readout); format: cell-based; settings: Human immunodeficiency virus 1, NL43, MT2, MT-2 cells infected for 4-5 days with recombinant NL4-3 virus carrying Renilla luciferase
Protocol: HIV cell culture assay—MT-2 cells, 293T cells and the proviral DNA clone of NL4-3 virus were obtained from the NIH AIDS Research and Reference Reagent Program. MT-2 cells were propagated in RPMI 1640 media supplemented with 10% heat inactivated fetal bovine serum (FBS), […]. The 293T cells were propagated in DMEM media supplemented with 10% heat inactivated FBS, […]. A recombinant NL4-3 proviral clone, in which a section of the nef gene was replaced with the Renilla luciferase gene, was used to make the reference virus used in these studies. The recombinant virus was prepared through transfection of the recombinant NL4-3 proviral clone into 293T cells using Transit-293 Transfection Reagent from Mirus Bio LLC (Madison, WI). Supernatent was harvested after 2-3 days and the amount of virus present was titered in MT-2 cells using luciferase enzyme activity as a marker by measuring luciferase enzyme activity. Luciferase was quantitated using the EnduRen Live Cell Substrate from Promega (Madison, Wis.). Antiviral activities of compounds toward the recombinant virus were quantified by measuring luciferase activity in MT-2 cells infected for 4-5 days with the recombinant virus in the presence of serial dilutions of the compound.
The 50% effective concentration (EC50) was calculated by using the exponential form of the median effect equation where (Fa)=1/[1+(ED50/drug conc.)m] (Johnson VA, Byington RT. Infectivity Assay. In Techniques in HIV Research. ed. Aldovini A, Walker BD. 71-76. New York: Stockton Press. 1990). The 50% inhibitory concentration (EC50) was calculated by using the exponential form of the median effect equation where percent inhibition=1/[1+(EC50/drug concentration)m], where m is a parameter that reflects the slope of the concentration-response curve.

[1] = Compound cytotoxicity, XTT-based colorimetric assay; format: cell-based; settings: human; uninfected MT2 cells, day 4, XTT assay
Protocol: Compound cytotoxicity and the corresponding CC50 values were determined using the same protocol as described in the antiviral assay except that uninfected cells were used. Cytotoxicity was assessed on day 4 in uninfected MT2 cells by using a XTT (2,3-bis[2-Methoxy-4-nitro-5-sulfophenyl]-2H-tetrazolium-5-carboxyanilide inner salt)-based colorimetric assay (Sigma-Aldrich, St Louis, Mo.).

Row | Structure (SMILES) | EC50 (recombinant NL4-3 virus) | CC50 at 4 day [1]
1 | Cn1nc(NS(C)(=O)=O)c2c(Cl)ccc(-n3c([C@H](Cc4cc(F)cc(F)c4)NC(=O)Cn4nc(C(F)F)c5c4C(F)(F)[C@@H]4C[C@H]54)nc4ncc(-c5cccc(C(F)(F)F)n5)cc4c3=O)c21 (atropisomer, axis not shown; (P)) [Example 1, N-((S)-1-((3P)-3-(4-chloro-1-methyl-3-(methylsulfonamido)-1H-indazol-7-yl)-4-oxo-6-(6-(trifluoromethyl)pyridin-2-yl)-3,4-dihydropyrido[2,3-d]pyrimidin-2-yl)-2-(3,5-difluorophenyl)ethyl)-2-((3bS,4aR)-3-(difluoromethyl)-5,5-difluoro-3b,4,4a,5-tetrahydro-1H-cyclopropa[3,4]cyclopenta[1,2-c]pyrazol-1-yl)acetamide] | 0.055 nM | > 100 nM
2 | Cn1nc(NS(C)(=O)=O)c2c(Cl)ccc(-n3c([C@H](Cc4cc(F)cc(F)c4)NC(=O)Cn4nc(C(F)F)c5c4C(F)(F)[C@@H]4C[C@H]54)nc4nc(-n5cnc(C(F)(F)F)n5)ccc4c3=O)c21 (atropisomer, axis not shown; (P)) [Example 80, N-((S)-1-((3P)-3-(4-chloro-1-methyl-3-(methylsulfonamido)-1H-indazol-7-yl)-4-oxo-7-(3-(trifluoromethyl)-1H-1,2,4-triazol-1-yl)-3,4-dihydropyrido[2,3-d]pyrimidin-2-yl)-2-(3,5-difluorophenyl)ethyl)-2-((3bS,4aR)-3-(difluoromethyl)-5,5-difluoro-3b,4,4a,5-tetrahydro-1H-cyclopropa[3,4]cyclopenta[1,2-c]pyrazol-1-yl)acetamide] | 0.028 nM | > 100 nM
3 | Cn1nc(NS(C)(=O)=O)c2c(Cl)ccc(-n3c([C@H](Cc4cc(F)cc(F)c4)NC(=O)Cn4nc(C(F)F)c5c4C(F)(F)[C@@H]4C[C@H]54)nc4nc(-n5ccc(C(F)(F)F)n5)ccc4c3=O)c21 (atropisomer, axis not shown; (P)) [Example 65, N-((S)-1-((3P)-3-(4-chloro-1-methyl-3-(methylsulfonamido)-1H-indazol-7-yl)-4-oxo-7-(3-(trifluoromethyl)-1H-pyrazol-1-yl)-3,4-dihydropyrido[2,3-d]pyrimidin-2-yl)-2-(3,5-difluorophenyl)ethyl)-2-((3bS,4aR)-3-(difluoromethyl)-5,5-difluoro-3b,4,4a,5-tetrahydro-1H-cyclopropa[3,4]cyclopenta[1,2-c]pyrazol-1-yl)acetamide] | 0.062 nM | > 100 nM
4 | COc1ccnc(-c2ccc3c(=O)n(-c4ccc(Cl)c5c(NS(C)(=O)=O)nn(C)c45)c([C@H](Cc4cc(F)cc(F)c4)NC(=O)Cn4nc(C(F)F)c5c4C(F)(F)[C@@H]4C[C@H]54)nc3n2)n1 (atropisomer, axis not shown; (P)) [Example 56, N-((S)-1-((3P)-3-(4-chloro-1-methyl-3-(methylsulfonamido)-1H-indazol-7-yl)-7-(4-methoxypyrimidin-2-yl)-4-oxo-3,4-dihydropyrido[2,3-d]pyrimidin-2-yl)-2-(3,5-difluorophenyl)ethyl)-2-((3bS,4aR)-3-(difluoromethyl)-5,5-difluoro-3b,4,4a,5-tetrahydro-1H-cyclopropa[3,4]cyclopenta[1,2-c]pyrazol-1-yl)acetamide] | 0.051 nM | > 100 nM
5 | Cn1nc(NS(C)(=O)=O)c2c(Cl)ccc(-n3c([C@H](Cc4cc(F)cc(F)c4)NC(=O)Cn4nc(C(F)F)c5c4C(F)(F)[C@@H]4C[C@H]54)nc4nc(-c5cccc(C(C)(F)F)n5)ccc4c3=O)c21 (atropisomer, axis not shown; (P)) [Example 12, N-((S)-1-((3P)-3-(4-chloro-1-methyl-3-(methylsulfonamido)-1H-indazol-7-yl)-7-(6-(1,1-difluoroethyl)pyridin-2-yl)-4-oxo-3,4-dihydropyrido[2,3-d]pyrimidin-2-yl)-2-(3,5-difluorophenyl)ethyl)-2-((3bS,4aR)-3-(difluoromethyl)-5,5-difluoro-3b,4,4a,5-tetrahydro-1H-cyclopropa[3,4]cyclopenta[1,2-c]pyrazol-1-yl)acetamide] | 0.06 nM | > 100 nM
6 | Cn1nc(NS(C)(=O)=O)c2c(Cl)ccc(-n3c([C@H](Cc4cc(F)cc(F)c4)NC(=O)Cn4nc(C(F)F)c5c4C(F)(F)[C@@H]4C[C@H]54)nc4nc(-c5ccc(OC(F)(F)F)cc5)ccc4c3=O)c21 (atropisomer, axis not shown; (P)) [Example 26, N-((S)-1-((3P)-3-(4-chloro-1-methyl-3-(methylsulfonamido)-1H-indazol-7-yl)-4-oxo-7-(4-(trifluoromethoxy)phenyl)-3,4-dihydropyrido[2,3-d]pyrimidin-2-yl)-2-(3,5-difluorophenyl)ethyl)-2-((3bS,4aR)-3-(difluoromethyl)-5,5-difluoro-3b,4,4a,5-tetrahydro-1H-cyclopropa[3,4]cyclopenta[1,2-c]pyrazol-1-yl)acetamide] | 0.51 nM | > 100 nM
7 | Cn1nc(NS(C)(=O)=O)c2c(Cl)ccc(-n3c([C@H](Cc4cc(F)cc(F)c4)NC(=O)Cn4nc(C(F)F)c5c4C(F)(F)[C@@H]4C[C@H]54)nc4nc(-c5cnccn5)ccc4c3=O)c21 (atropisomer, axis not shown; (P)) [Example 8, N-((S)-1-((3P)-3-(4-chloro-1-methyl-3-(methylsulfonamido)-1H-indazol-7-yl)-4-oxo-7-(pyrazin-2-yl)-3,4-dihydropyrido[2,3-d]pyrimidin-2-yl)-2-(3,5-difluorophenyl)ethyl)-2-((3bS,4aR)-3-(difluoromethyl)-5,5-difluoro-3b,4,4a,5-tetrahydro-1H-cyclopropa[3,4]cyclopenta[1,2-c]pyrazol-1-yl)acetamide] | 0.019 nM | > 100 nM
8 | Cn1nc(NS(C)(=O)=O)c2c(Cl)ccc(-n3c([C@H](Cc4cc(F)cc(F)c4)NC(=O)Cn4nc(C(F)F)c5c4C(F)(F)[C@@H]4C[C@H]54)nc4nc(-c5nccnc5Cl)ccc4c3=O)c21 (atropisomer, axis not shown; (P)) [Example 61, N-((S)-1-((3P)-3-(4-chloro-1-methyl-3-(methylsulfonamido)-1H-indazol-7-yl)-7-(3-chloropyrazin-2-yl)-4-oxo-3,4-dihydropyrido[2,3-d]pyrimidin-2-yl)-2-(3,5-difluorophenyl)ethyl)-2-((3bS,4aR)-3-(difluoromethyl)-5,5-difluoro-3b,4,4a,5-tetrahydro-1H-cyclopropa[3,4]cyclopenta[1,2-c]pyrazol-1-yl)acetamide] | 0.025 nM | > 100 nM
9 | Cn1nc(NS(C)(=O)=O)c2c(Cl)ccc(-n3c([C@H](Cc4cc(F)cc(F)c4)NC(=O)Cn4nc(C(F)F)c5c4C(F)(F)[C@@H]4C[C@H]54)nc4nc(-c5ccc(S(C)(=O)=O)cc5F)ccc4c3=O)c21 (atropisomer, axis not shown; (P)) [Example 32, N-((S)-1-((3P)-3-(4-chloro-1-methyl-3-(methylsulfonamido)-1H-indazol-7-yl)-7-(2-fluoro-4-(methylsulfonyl)phenyl)-4-oxo-3,4-dihydropyrido[2,3-d]pyrimidin-2-yl)-2-(3,5-difluorophenyl)ethyl)-2-((3bS,4aR)-3-(difluoromethyl)-5,5-difluoro-3b,4,4a,5-tetrahydro-1H-cyclopropa[3,4]cyclopenta[1,2-c]pyrazol-1-yl)acetamide] | 0.075 nM | > 100 nM
10 | Cn1nc(NS(C)(=O)=O)c2c(Cl)ccc(-n3c([C@H](Cc4cc(F)cc(F)c4)NC(=O)Cn4nc(C(F)F)c5c4C(F)(F)[C@@H]4C[C@H]54)nc4nc(-n5cc(C(F)(F)F)cn5)ccc4c3=O)c21 (atropisomer, axis not shown; (P)) [Example 66, N-((S)-1-((3P)-3-(4-chloro-1-methyl-3-(methylsulfonamido)-1H-indazol-7-yl)-4-oxo-7-(4-(trifluoromethyl)-1H-pyrazol-1-yl)-3,4-dihydropyrido[2,3-d]pyrimidin-2-yl)-2-(3,5-difluorophenyl)ethyl)-2-((3bS,4aR)-3-(difluoromethyl)-5,5-difluoro-3b,4,4a,5-tetrahydro-1H-cyclopropa[3,4]cyclopenta[1,2-c]pyrazol-1-yl)acetamide] | 0.07 nM | > 100 nM
